# According to publication PMC6270453, “One Lignanoid Compound and Four Triterpenoid Compounds with Anti-Inflammatory Activity from the Leaves of Elaeagnus oldhamii Maxim” (Molecules, 2013):
# “Also recorded” adds a separate entry of the source.
# Experiments:
# RAW264.7 cells = assay: Cell viability (MTT) in the presence of LPS; format: cell-based, murine; settings: for Cell Viability (% of Control): RAW264.7, 100 ng/mL LPS, 24 h, MTT, mean ± S.D.
# Method: (§1) A murine macrophage cell line RAW264.7 (BCRC No. 60001) was purchased from the Bioresources Collection and Research Center (BCRC, Hsinchu, Taiwan) of the Food Industry Research and Development Institute (Hsinchu, Taiwan). Cells were cultured in plastic dishes containing Dulbecco’s Modified Eagle Medium (DMEM, Sigma) supplemented with 10% fetal bovine serum (FBS, Sigma) in a CO2 incubator (5% CO2 in air) at 37 °C and subcultured every 3 days at a dilution of 1:5 using 0.05% trypsin-0.02% EDTA in Ca^2+-, Mg^2+-free phosphate-buffered saline (DPBS).
# Cells (2 × 10^5) were cultured in 96-well plate containing DMEM supplemented with 10% FBS for 1 day to become nearly confluent. Then cells were cultured with compounds 1–5 in the presence of 100 ng/mL LPS (lipopolysaccharide) for 24 h. After that, the cells were washed twice with DPBS and incubated with 100 μL of 0.5 mg/mL MTT for 2 h at 37 °C testing for cell viability. The medium was then discarded and 100 μL dimethyl sulfoxide (DMSO) was added. After 30-min incubation, absorbance at 570 nm was read using a microplate reader (Molecular Devices, Sunnyvale, CA, USA).
# [1] = tested on: LPS-induced NO production in macrophages (RAW264.7 cells); assay: Measurement of nitric oxide/nitrite (Griess reaction) in LPS-stimulated macrophages; format: cell-based, murine; settings: for NO Inhibition (% of Control) / No Level: LPS 100 ng/mL, 24 h, mean ± S.D.; for No Level: nitrite in medium, LPS alone 30.3 ± 2.2, in µM
# Method: as §1
# NO production was indirectly assessed by measuring the nitrite levels in the cultured media and serum determined by a colorimetric method based on the Griess reaction. The cells were incubated with different concentration of samples in the presence of LPS (100 ng/mL) at 37 °C for 24 h. Then, cells were dispensed into 96-well plates, and 100 μL of each supernatant was mixed with the same volume of Griess reagent (1% sulfanilamide, 0.1% naphthylethylenediamine dihydrochloride and 5% phosphoric acid) and incubated at room temperature for 10 min, the absorbance was measured at 540 nm with a Micro-Reader (Molecular Devices). By using sodium nitrite to generate a standard curve, the concentration of nitrite was measured form absorbance at 540 nm.
# IC50 values were estimated using a non-linear regression algorithm (Sigma Plot 12.0; SPSS Inc. Chicago, IL, USA). Statistical evaluation was carried out by one-way ANOVA followed by Scheffe’s multiple range tests.
smiles,measurement,setting,value
"COc1cc([C@H]2Oc3cc(/C=C\CO)ccc3O[C@@H]2C)ccc1O [Compound 1, isoamericanol B]",Cell Viability (% of Control),RAW264.7 cells; dose 2.5 μg/mL,100.6 ± 5.9 % of Control
same,Cell Viability (% of Control),RAW264.7 cells; dose 5 μg/mL,97.6 ± 4.3 % of Control
same,Cell Viability (% of Control),RAW264.7 cells; dose 10 μg/mL,90.7 ± 3.3 % of Control
same,Cell Viability (% of Control),RAW264.7 cells; dose 20 μg/mL,88.8 ± 2.6 % of Control
same,Change of cell viability (in words),RAW264.7 cells; tested concentrations 2.5 to 20 μg/mL,did not significantly change cell viability; also recorded: did not change significantly cell viability
same,IC50,"[1]; Mus musculus, RAW264.7, 24 h, LPS-stimulated RAW264.7 cells, non-linear regression, read-out: IC50 for inhibition of nitrite production",~10.3 µg/mL
same,NO Inhibition (% of Control),[1]; dose 2.5 μg/mL,42.0 ± 1.6 % of Control
same,No Level,[1]; dose 2.5 μg/mL,17.6 ± 0.5
same,NO Inhibition (% of Control),[1]; dose 5 μg/mL,42.3 ± 2.6 % of Control
same,No Level,[1]; dose 5 μg/mL,17.5 ± 08
same,NO Inhibition (% of Control),[1]; dose 10 μg/mL,49.7 ± 1.4 % of Control
same,No Level,[1]; dose 10 μg/mL,15.2 ± 0.4
same,NO Inhibition (% of Control),[1]; dose 20 μg/mL,60.4 ± 1.3 % of Control
same,No Level,[1]; dose 20 μg/mL,12.0 ± 0.4
